Measurements taken from ChEMBL document CHEMBL1201862, “PubChem BioAssay data set” (2004).
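Method: 48-hour compound exposure of cells in 96-well plates, five concentrations, linear interpolation of endpoints. At the GI50, growth is halved.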 Activity calls are given as the source filed them. Cut-off read from the data, not from the text of the source: active = GI50 up to about 1.1 µM and inactive = higher.

How the values were obtained:
Assay in all cases: DTP human tumour cell line panel, 48 h
[1] = tested on: 786-0
[2] = tested on: ACHN
[3] = tested on: EKVX
[4] = tested on: HCC 2998
[5] = tested on: HCT-15
[6] = tested on: HL-60
[7] = tested on: Hs-578T
[8] = tested on: LOX IMVI
[9] = tested on: M14
[10] = tested on: MDA-N
[11] = tested on: OVCAR-4
[12] = tested on: SF-539
[13] = tested on: SK-MEL-28
[14] = tested on: SK-MEL-2
[15] = tested on: SK-OV-3
[16] = tested on: SN12C
[17] = tested on: SR
[18] = tested on: T47D
[19] = tested on: UACC-62

| Structure (SMILES) | GI50 [1] | GI50 [2] | GI50 [3] | GI50 [4] | GI50 [5] | GI50 [6] | GI50 [7] | GI50 [8] | GI50 [9] | GI50 [10] | GI50 [11] | GI50 [12] | GI50 [13] | GI50 [14] | GI50 [15] | GI50 [16] | GI50 [17] | GI50 [18] | GI50 [19] |
| --- | --- | --- | --- | --- | --- | --- | --- | --- | --- | --- | --- | --- | --- | --- | --- | --- | --- | --- | --- |
| [N-]=[N+]=Nc1ccc2c(c1)Sc1ccccc1N2CCCCCl | > 100 µM (inactive) | > 100 µM (inactive) | 56 µM (inactive) | 61.8 µM (inactive) | 81.3 µM | 15.3 µM (inactive) | 35.8 µM (inactive) | 36.8 µM (inactive) | > 100 µM (inactive) | 48.4 µM (inactive) | 80.4 µM (inactive) | > 100 µM (inactive) | > 100 µM (inactive) | 13.5 µM (inactive) | > 100 µM (inactive) | > 100 µM (inactive) | 30.9 µM (inactive) | 44.7 µM (inactive) | 99.8 µM (inactive) |
| CNC(=O)O/N=C1\N(C)CN(c2ccccc2)C12CCN(CCCC(=O)c1ccc(F)cc1)CC2 | 75.5 µM (inactive) | 83.8 µM (inactive) | > 100 µM (inactive) | 43 µM (inactive) | > 100 µM | 82 µM (inactive) | > 100 µM (inactive) | 31.1 µM (inactive) | 16.9 µM (inactive) | 39.4 µM (inactive) | 27.6 µM (inactive) | 50.6 µM (inactive) | > 100 µM (inactive) | 60.8 µM (inactive) | > 100 µM (inactive) | > 100 µM (inactive) | 39.3 µM (inactive) | > 100 µM (inactive) | > 100 µM (inactive) |
| CN(C)c1ccc(/C=c2/c3ccccc3n3c2cc(/C=C/c2ccccc2)[n+]3C)cc1 | 0.0815 µM (active) | 0.255 µM (active) | 0.265 µM (active) | 0.121 µM (active) | 0.881 µM | 0.0927 µM (active) | 0.0287 µM (active) | 0.12 µM (active) | 0.218 µM (active) | 0.249 µM (active) | 0.286 µM (active) | 0.038 µM (active) | 0.269 µM (active) | 0.282 µM (active) | 0.296 µM (active) | 0.0841 µM (active) | 0.0367 µM (active) | 0.0164 µM (active) | 0.281 µM (active) |
| COc1cc(C(c2cc3c(cc2O)OCO3)N2CCCCC2)cc(OC)c1OC (stereo not given) | 5.86 µM (inactive) | 17.1 µM (inactive) | 18.7 µM (inactive) | 22.2 µM (inactive) | 15.9 µM | 1.76 µM (inactive) | 14 µM (inactive) | 14.8 µM (inactive) | 6.28 µM (inactive) | 7.28 µM (inactive) | 11.9 µM (inactive) | 17.9 µM (inactive) | 16.7 µM (inactive) | 15.7 µM (inactive) | 22.2 µM (inactive) | 11.5 µM (inactive) | 2.33 µM (inactive) | 22.4 µM (inactive) | 16.4 µM (inactive) |
| CC(=O)c1c2c(cc3c1CCC3)CCC2 | > 100 µM (inactive) | > 100 µM (inactive) | 63.5 µM (inactive) | > 100 µM (inactive) | > 100 µM | > 100 µM (inactive) | 76.6 µM (inactive) | > 100 µM (inactive) | > 100 µM (inactive) | > 100 µM (inactive) | 69.7 µM (inactive) | > 100 µM (inactive) | > 100 µM (inactive) | > 100 µM (inactive) | > 100 µM (inactive) | > 100 µM (inactive) | > 100 µM (inactive) | 15.4 µM (inactive) | > 100 µM (inactive) |
| C=C1C(=O)OC2/C=C(\CO)CC/C=C(\CO)CC(OC(=O)C(C)C)C12 (stereo not given) | 5.52 µM (inactive) | 1.95 µM (inactive) | 16.4 µM (inactive) | 20.7 µM (inactive) | 3.19 µM | 2.87 µM (inactive) | 19.9 µM (inactive) | 13.5 µM (inactive) | 7.53 µM (inactive) | 5.68 µM (inactive) | 19.4 µM (inactive) | 14.9 µM (inactive) | 6.27 µM (inactive) | 16.5 µM (inactive) | 27.2 µM (inactive) | 13.3 µM (inactive) | 4.79 µM (inactive) | 4.72 µM (inactive) | 14.1 µM (inactive) |
| CSc1ccccc1P(CCP(c1ccccc1SC)c1ccccc1SC)c1ccccc1SC | 15.6 µM (inactive) | 47.2 µM (inactive) | 19.6 µM (inactive) | 4.88 µM (inactive) | > 67 µM | 0.4 µM (active) | 28.7 µM (inactive) | 22.6 µM (inactive) | 24.3 µM (inactive) | 50.5 µM (inactive) | 14.3 µM (inactive) | 34.1 µM (inactive) | 76.2 µM (inactive) | 53.3 µM (inactive) | 16.3 µM (inactive) | 38.3 µM (inactive) | 1.11 µM (active) | 12.4 µM (inactive) | > 86.5 µM (inactive) |
| CC(C)c1cc(Cl)nc(Cl)n1 | > 100 µM (inactive) | > 100 µM (inactive) | > 100 µM (inactive) | > 100 µM (inactive) | > 100 µM | > 100 µM (inactive) | > 100 µM (inactive) | > 100 µM (inactive) | > 100 µM (inactive) | > 100 µM (inactive) | > 100 µM (inactive) | > 100 µM (inactive) | > 100 µM (inactive) | > 100 µM (inactive) | > 100 µM (inactive) | > 100 µM (inactive) | > 100 µM (inactive) | > 100 µM (inactive) | > 100 µM (inactive) |
| CCOc1ccc(-n2c(=O)c3nn4c(=O)n(-c5ccc(OCC)cc5)c(=O)c4nn3c2=O)cc1 | 70.1 µM (inactive) | > 100 µM (inactive) | > 100 µM (inactive) | > 100 µM (inactive) | > 100 µM | > 100 µM (inactive) | 28.5 µM (inactive) | > 100 µM (inactive) | > 100 µM (inactive) | > 100 µM (inactive) | > 100 µM (inactive) | > 100 µM (inactive) | > 100 µM (inactive) | 39.4 µM (inactive) | > 100 µM (inactive) | > 100 µM (inactive) | > 100 µM (inactive) | > 100 µM (inactive) | > 100 µM (inactive) |
| O=C(/C=C/c1ccc(O)c(O)c1)Oc1ccccc1 | 10.6 µM (inactive) | 8.45 µM (inactive) | 18.6 µM (inactive) | 18.6 µM (inactive) | 2.74 µM | 1.61 µM (inactive) | 14.2 µM (inactive) | 4.9 µM (inactive) | 15.5 µM (inactive) | 16.1 µM (inactive) | 15.2 µM (inactive) | 10.6 µM (inactive) | 22.5 µM (inactive) | 15.7 µM (inactive) | 45.6 µM (inactive) | 16 µM (inactive) | 0.434 µM (active) | 9.71 µM (inactive) | 13.2 µM (inactive) |
| N=C(N)NNC(=O)C(=O)O | > 100 µM (inactive) | > 100 µM (inactive) | > 100 µM (inactive) | > 100 µM (inactive) | > 100 µM | > 100 µM (inactive) | > 100 µM (inactive) | > 100 µM (inactive) | > 100 µM (inactive) | > 100 µM (inactive) | > 100 µM (inactive) | > 100 µM (inactive) | > 100 µM (inactive) | > 100 µM (inactive) | 55.1 µM (inactive) | > 100 µM (inactive) | > 100 µM (inactive) | > 100 µM (inactive) | > 100 µM (inactive) |
| Nc1nc(Sc2ccc([N+](=O)[O-])cn2)c2nc[nH]c2n1 | 5.74 µM (inactive) | 12.3 µM (inactive) | 7.53 µM (inactive) | 12.8 µM (inactive) | 9.55 µM | 10.7 µM (inactive) | 15.3 µM (inactive) | 2.52 µM (inactive) | 3.16 µM (inactive) | 3.61 µM (inactive) | 9.18 µM (inactive) | 6.24 µM (inactive) | 33.8 µM (inactive) | 2.47 µM (inactive) | 3.95 µM (inactive) | 4.74 µM (inactive) | 3.46 µM (inactive) | 4.36 µM (inactive) | 2.94 µM (inactive) |
| N=c1oc2c(Br)cc(Br)cc2cc1C(=O)Nc1ccccn1 | 36.5 µM (inactive) | 70.5 µM (inactive) | > 100 µM (inactive) | > 100 µM (inactive) | 38.9 µM | 57.5 µM (inactive) | 64.4 µM (inactive) | > 100 µM (inactive) | 56 µM (inactive) | > 100 µM (inactive) | 68.9 µM (inactive) | 31.8 µM (inactive) | > 100 µM (inactive) | 30.1 µM (inactive) | > 100 µM (inactive) | > 100 µM (inactive) | 91 µM (inactive) | 38.8 µM (inactive) | 74.8 µM (inactive) |
| Cc1ccc(C(=O)CC(O)(C(F)(F)F)C(F)(F)F)cc1[N+](=O)[O-] | 12.1 µM (inactive) | 15.5 µM (inactive) | 17.9 µM (inactive) | 6.9 µM (inactive) | 3.92 µM | 2.12 µM (inactive) | 9.46 µM (inactive) | 2.07 µM (inactive) | 6.59 µM (inactive) | 10.2 µM (inactive) | 15.8 µM (inactive) | 17 µM (inactive) | 8.15 µM (inactive) | 13.7 µM (inactive) | 18.1 µM (inactive) | 10 µM (inactive) | 5.73 µM (inactive) | 13.5 µM (inactive) | 8.55 µM (inactive) |
| O=C(O)/C=C/C(=O)Nc1cccc2c1-c1ccccc1C2=O | 9.53 µM (inactive) | 17.3 µM (inactive) | > 90.8 µM (inactive) | 22.2 µM (inactive) | 10.2 µM | 1.28 µM (inactive) | 3.76 µM (inactive) | 8.91 µM (inactive) | 9.4 µM (inactive) | 2.99 µM (inactive) | 22.9 µM (inactive) | 3.46 µM (inactive) | > 29.6 µM (inactive) | 3.56 µM (inactive) | 22.9 µM (inactive) | 36.6 µM (inactive) | 9.2 µM (inactive) | > 51.5 µM (inactive) | 6.58 µM (inactive) |
